Data set [1] has as its system 4T1 hPD-L1 cells. The experiment in a line: Pharmacodynamic study on mouse breast cancer 4T1 hPD-L1 model, subcutaneous (Example 1, capecitabine combination). The data set is classed as in vivo, BALB/c mice. The following applies: Compound of Formula I 120 mg/kg p.o. BID, Capecitabine 100 mg/kg p.o. QD. As for the experimental part:
Experimental animals: 100 BALB/c mice, female, 6 to 8 weeks old, weighing 18 to 21 g, purchased from Shanghai Jihui Laboratory Animal Care Co., Ltd. (SCXK (Shanghai) 2020-0009; Certificate No.: 20220009001922).
Drugs: Compound of Formula I [drawing 4] manufacturer: Pharmaron (Tianjin) Process Development and Manufacturing Co., Ltd., batch number: TJ-MAX-10181-A-2; Capecitabine, manufacturer: Shanghai Yuanye Bio-Technology Co., Ltd., batch number: J10J12L137020.
(§1) Murine 4T1 hPD-L1 cells were grown adherently in vitro under culture conditions of RPMI-1640 medium supplemented with 10% heat-inactivated fetal bovine serum and 4 µg/mL Blasticidin (Beyotime/ST018-1mL), at 37°C with 5% CO2. Cells were passaged 2 to 3 times per week. When cells were in the exponential growth phase, the cells were harvested, counted, and inoculated subcutaneously on the right dorsal side of BALB/c mice.
100 µL of 1 × 10^6 4T1 hPD-L1 cell suspension was inoculated subcutaneously on the right dorsal side of BALB/c mice. On the 6th day after inoculation, suitable animals were selected based on tumor volume and body weight, and stratified randomization was used to divide them into 4 groups, with 10 mice per group. Administration began on the day of grouping. Table 1: Animal Experiment Grouping and Administration Regimen
(§2) The experimental indicators were examined to determine whether tumor growth could be inhibited, delayed, or cured. Tumors were measured three times per week using a digital vernier caliper. The tumor volume was calculated using the formula: V = 0.5a × b^2, where a and b represent the long and short diameters of the tumor, respectively. The tumor growth inhibition efficacy of compounds was calculated as: TGI (%) = [1 - (TVi - TV0) / (TVVi - TVV0)] × 100% (where TV0 represents the mean volume of the treatment group on day 0, TVV0 represents the mean volume of the control group on day 0; TVi represents the mean volume of the treatment group on day i, and TVVi represents the mean volume of the control group on day i).
(§3) If the animals' health condition continued to deteriorate, or the tumor volume exceeded 2,000 mm^3, or severe illness or pain occurred, euthanasia was required. In the following circumstances, the veterinarian was notified and euthanasia was performed: • (1) Significant emaciation with body weight loss exceeding 20%; • (2) Inability to freely access food and water; • (3) The experiment was terminated when the average tumor volume in the control group reached 2000 mm^3.
(§4) GraphPad Prism 8.0 software was used for plotting. Changes in tumor volume in mice were analyzed by Two-way ANOVA and compared with the vehicle control group using Dunnett's method, with P < 0.05 considered statistically significant.

For data set [2], the system named is 4T1 hPD-L1 cells. Description: Pharmacodynamic study on mouse breast cancer 4T1 hPD-L1 model, subcutaneous (Example 2, celecoxib combination). In kind it is in vivo, BALB/c mice. The following applies: Compound of Formula I 120 mg/kg p.o. BID, Celecoxib 60 mg/kg p.o. BID. How it is done:
Experimental animals: 100 BALB/c mice, female, 6 to 8 weeks old, weighing 18 to 21 g, purchased from: Shanghai Jihui Laboratory Animal Care Co., Ltd. (SCXK (Shanghai) 2020-0009; Certificate No.: 20220009001922).
Drugs: Compound of Formula I, manufacturer: Pharmaron (Tianjin) Process Development and Manufacturing Co., Ltd., batch number: TJ-MAX-10181-A-2; Celecoxib, manufacturer: Shanghai Yuanye Bio-Technology Co., Ltd., batch number: D11A6S2152.
as §1
100 µL of 1 × 10^6 4T1 hPD-L1 cell suspension was inoculated subcutaneously on the right dorsal side of BALB/c mice. On the seventh day after inoculation, stratified randomization was used to divide into 4 groups (10 mice per group) based on tumor volume and body weight. Administration began on the day of grouping. Table 5: Animal Experiment Grouping and Administration Regimen
as §2, §3, §4

Another data set relates to 4T1 cells. Description: Orthotopic 4T1 breast cancer model with tumor resection, survival study (Example 3, paclitaxel combination). The data set is classed as in vivo, BALB/c mice. The following applies: day 38; Compound of Formula I 60 mg/kg PO BID; Paclitaxel 6 mg/kg IP Q2D; orthotopic tumors resected 13 days after inoculation; n=10. As for the experimental part:
Experimental animals: 50 BALB/c mice, female, 6 to 8 weeks old, weighing 18 to 20 g. Zhejiang Vital River Laboratory Animal Technology Co., Ltd., Tongxiang Branch (SCKX (Zhejiang) 2021-0006); Certificate No.: 20220728Abzz0600000694.
Drugs: Compound of Formula I, manufacturer: Pharmaron (Tianjin) Process Development and Manufacturing Co., Ltd., batch number: TJ-MAX-10181-A-2; Paclitaxel (6 mg/mL), manufacturer: Corden Pharma Latina S.P.A., batch number: 2D07013.
Murine 4T1 cells were grown adherently in vitro under culture conditions of RPMI-1640 medium supplemented with 10% heat-inactivated fetal bovine serum at 37°C with 5% CO2. Cells were passaged 2 to 3 times per week. When the cells were in the exponential growth phase, the cells were harvested, counted, and inoculated into the fourth fat pad on the left abdomen of BALB/c mice.
50 µL of 1 × 10^5 4T1 cell suspension was inoculated into the fourth fat pad on the left abdomen of BALB/c mice. […]
The experimental indicators were examined to determine whether tumor growth could be inhibited, delayed, or cured. Tumors were measured three times per week using a digital vernier caliper. The tumor volume was calculated using the formula: V = 0.5a × b^2, where a and b represent the long and short diameters of the tumor, respectively. […]

The subject of a further data set is GL-261-luc cells. The experiment in a line: Mouse glioma GL-261-luc brain orthotopic xenograft tumor model, pharmacodynamics and survival (Example 4, temozolomide combination). The following applies: Compound of Formula I 120 mg/kg PO BID, TMZ 7.5 mg/kg IP BIW. In kind it is in vivo, C57 BL/6 mice. How it is done: Experimental animals: 57 C57 BL/6 mice, female, 6 to 8 weeks old, weighing 16 to 20 g, purchased from Shanghai Jihui Laboratory Animal Care Co., Ltd.
Drugs: Compound of Formula I [drawing 5] manufacturer: Pharmaron (Tianjin) Process Development and Manufacturing Co., Ltd., batch number: TJ-MAX-10181-A-2; TMZ (Temozolomide), manufacturer: Shanghai Aladdin Biochemical Technology Co., Ltd., batch number: J2227749.
Murine GL-261-luc cells were grown adherently in vitro under culture conditions of DMEM medium supplemented with 10% heat-inactivated fetal bovine serum and 0.6 mg/mL G418 (stock concentration: 100 mg/mL), at 37°C with 5% CO2. Cells were passaged 2 to 3 times per week. When cells were in the exponential growth phase, the cells were harvested, counted, and inoculated into the right caudate nucleus of C57 BL/6 mice.
GL-261-luc cells in logarithmic growth phase were harvested at full confluence with viability guaranteed 90% or more. Mice were anesthetized via intraperitoneal injection of 41.6 mg/kg Zoletil according to body weight. 1 × 10^5/2 µL/mouse cells was orthotopically inoculated into the right caudate nucleus of each mouse, and the skin was sutured with 4/0 suture. After recovery, mice were returned to their cages. 4 days after inoculation, mice were imaged and grouped using the IVIS Lumina XR small animal imager. Fluorescence signal intensity was used for stratified randomization into 4 groups (9 mice per group). Administration began on the day of grouping, with daily weight monitoring and observation of mouse growth status. Mice were imaged twice weekly. Table 11: Animal Experiment Grouping and Administration Regimen
The experimental indicators were examined to determine whether tumor growth could be inhibited, delayed, or cured. According to the experimental design, tumor growth was monitored by imaging mice using the IVIS Lumina XR small animal imager. The tumor growth inhibition efficacy of the compounds was evaluated using TGI (Tumor Growth Inhibition), where TGI (%) = [1 - (TFtreatment-Dn - TFtreatment-D0) / (TFcontrol-Dn - TFcontrol-D0)] × 100% (where TFtreatment-D0 represents the fluorescence signal intensity of the treatment group on day 0, TFcontrol-D0 represents the fluorescence signal intensity of the control group on day 0; TFtreatment-Dn represents the fluorescence signal intensity of the treatment group on day n, and TFcontrol-Dn represents the fluorescence signal intensity of the control group on day n). The calculation formula for an increase in life span (ILS) is: ILS = (MSTTreatment - MSTControl) / MSTControl × 100% (where MSTTreatment is the median survival days for the treatment group, and MSTControl is the median survival days for the control group).
Tumor size was analyzed using the statistical software GraphPad Prism based on fluorescence signal intensity values. Two-way ANOVA was used to compare whether there were significant differences in fluorescence signal intensity between the control group and each treatment group, with p < 0.05 considered statistically significant and p < 0.01 considered highly statistically significant.

[3] abbreviates: mean, n=10, baseline on day of grouping.

Consider four molecules from patent EP4736876A1, “DRUG COMBINATION CONTAINING PD-L1 SMALL MOLECULE INHIBITOR AND USE THEREOF” (Beijing Maxinovel Pharmaceuticals Co., Ltd., priority 2023, dated 2025).

On to `CCCCCOC(=O)Nc1nc(=O)n([C@@H]2O[C@H](C)[C@@H](O)[C@H]2O)cc1F` [Capecitabine], for which the “TGI (%)/Day 21” value with 4T1 hPD-L1 cells [1] (Day 21 vs vehicle control) is 56.16%. In addition, the “Tumor Volume at the Beginning of the Experiment/Day 0” value with 4T1 hPD-L1 cells [1] (setting [3]) was 125.17 mm^3.

Regarding `Cc1ccc(-c2cc(C(F)(F)F)nn2-c2ccc(S(N)(=O)=O)cc2)cc1` [Celecoxib], in the data set on 4T1 hPD-L1 cells [2] (Day 21 vs vehicle control), the “TGI (%)/Day 21” value amounted to 83.90%. In addition, in the data set with 4T1 hPD-L1 cells [2] (mean, n=10, Day 21), the “Tumor Volume at the End of the Experiment/Day 21” value stood at 341.70 mm^3. The “Tumor Volume at the Beginning of the Experiment/Day 0” value in the data set with 4T1 hPD-L1 cells [2] (setting [3]) turned out to be 159.34 mm^3. Further, the “Body Weight of Animals at the Beginning of the Experiment” value with 4T1 hPD-L1 cells [2] (mean, baseline) is given as 22.68 g. Also, in the data set with 4T1 hPD-L1 cells [2] (mean, end of experiment), the “Body Weight of Animals at the End of the Experiment” value worked out at 23.68 g and the “Relative Body Weight Change of Animals at the End of the Experiment” value is 4.48%.

On to `CC(=O)O[C@H]1C(=O)[C@@]2(C)[C@H]([C@H](OC(=O)c3ccccc3)[C@]3(O)C[C@H](OC(=O)[C@H](O)[C@@H](NC(=O)c4ccccc4)c4ccccc4)C(C)=C1C3(C)C)[C@]1(OC(C)=O)CO[C@@H]1C[C@@H]2O` [Paclitaxel], for which the “survival rate of mice” value in the data set on 4T1 cells is listed as 10%.

For the molecule `Cn1nnc2c(C(N)=O)ncn2c1=O` [TMZ, Temozolomide], in the data set on GL-261-luc cells (Day 14, based on fluorescence signal intensity vs vehicle control), the “TGI (%)/Day 14” value is given as 35.51%. In the data set with GL-261-luc cells (Day 14), the “Total Fluorescence Intensity at the End of the Experiment/Day 14” value worked out at 1.27E + 09 p/s. The “Total Fluorescence Intensity at the Beginning of the Experiment/Day 0” value with GL-261-luc cells (baseline Day 0) came to 2.76E + 07 p/s. In addition, the “mice showed > 10% body weight loss” value in the data set with GL-261-luc cells (by day 14 of administration, 9 mice per group) was found to be 2 mice. In the data set on GL-261-luc cells (mean, n=9), the “Body Weight of Animals at the End of the Experiment” value is given as 19.40 g and the “Relative Body Weight Change of Animals at the End of the Experiment” value is on record as -0.63%. In the data set with GL-261-luc cells (mean, n=9, baseline), the “Body Weight of Animals at the Beginning of the Experiment” value is on record as 19.51 g. Moreover, the “increase in life span (ILS)” value in the data set on GL-261-luc cells (median survival vs vehicle control, end of experiment) came to 25%.
